{"source": "patent US20260315563A1", "about": "“A NOVEL MENTHOL-EUCALYPTUS OIL ANTITUSSIVE SPRAY AND USE THEREOF” (SINO-SHINE BIOPHARMACEUTICAL CO.,LTD, priority 2023, published 2026)", "key": {"[1]": {"tested_on": "TRPV1", "conditions": "in vivo; cited from earlier work"}, "[2]": {"tested_on": "sodium citrate-evoked coughs", "experiment": "Animal Experiment 1: antitussive effect in sodium citrate (citric acid)-evoked cough, guinea pigs", "type": "in vivo", "conditions": "for Cough Frequency / Cough Latency / Inhibition Rate of Cough: nebulization 10 min, 0.4 M citric acid; for Inhibition Rate of Cough: original model", "experimental": "100 guinea pigs, 250 g to 300 g each, half-male and half-female, were purchased from Beijing Vital River Experimental Animal Technology Co., Ltd., referred to Certificate Numbers 110011220104932418, 110011220104932542. The animals were reared at the general laboratory facility with 40% to 60% of humidity, and provided with a cycle of light: 12 h in dark and 12 h in light. The animals could freely access to water and food. All operations and experimental procedures complied with the “Regulations on Animal Experiment Management.”\nAt the initial screening step, each guinea pig was individually placed in a glass bell jar to allow adaptation for 1 min and then administered with a compressed aerosol of 0.4 M citric acid solution (instead of physiological saline for the blank control group) for 10 min. The frequency of cough was recorded during administration of the aerosol. The guinea pigs with a cough frequency of 10-30 were retained for the formal experiments later. The qualified guinea pigs were randomly divided into the corresponding groups (not fewer than 10 in each group) and were subjected to test the inhalation of the nebulized solvent, menthol, eucalyptus oil, or a combination of menthol and eucalyptus oil for 10 min. After an interval of 10 min post-inhalation of the test drug, 0.4 M citric acid solution was nebulized and given for inhalation, and the cough frequency was recorded by video from the beginning to the end of the administration of citric acid aerosol. The latency of cough is defined as the period from the inhalation of nebulized citric acid to the appearance of the first cough. The videos were recorded during the period of cough provocation in the experiment.\n• (1) 0.4 M sodium citrate: Sodium citrate was accurately weighed, added into an appropriate volume of pure water, completely dissolved by sonication, and finally diluted to 0.4 M for use later. • (2) Codeine: Codeine was accurately weighed, grounded sufficiently in a mortar, transferred into an appropriate amount of physiological saline, and dissolved by sonication. • (3) Preparations of testing drugs: Initially, an oil phase was prepared by dissolving 2 g of menthol in 10 mL of olive oil (menthol group); or well mixing 3.6 mL of eucalyptus oil with 6.4 mL of olive oil (eucalyptus oil group); or adding 2 g of menthol and 3.6 mL of eucalyptus oil/0.6 g of menthol and 3.6 mL of eucalyptus oil/2 g of menthol and 1.2 mL of eucalyptus oil respectively in a corresponding volume of olive oil to make a final 10 mL solution (menthol+eucalyptus oil groups). Afterwards, 5 g of soybean lecithin (cut into small pieces beforehand) was added to 10 mL of olive oil (control group) or each of the drug groups above and dissolved by slowly stirring to form a uniform oil phase at 42° C. in a water bath. Further, double distilled water was slowly added to each group in oil phase on a magnetic stirrer and fully emulsified by sufficiently stirring to mix the oil phase with water. A final emulsion was prepared in a volume of 100 mL and could be further diluted to make a working preparation with the specific concentration of drug (or drugs).\nAll experimental data were expressed as mean±SEM, and the data-processing software SSPS16.0 was used to conduct the analysis of variance and inter-group t-test. The conclusions were made by comprehensively analyzing all data."}, "[3]": {"tested_on": "inflammatory factors, such as leukotriene B4 (LTB4), prostaglandin (PGE2), and a variety of cytokines", "conditions": "cited from earlier work"}, "[4]": {"tested_on": "coughs", "conditions": "in vivo; cited from earlier work"}, "[5]": {"tested_on": "asthma", "conditions": "clinical trials for asthma; cited from earlier work"}, "[6]": {"tested_on": "cough induction using LPS and citric acid", "experiment": "Animal Experiment 2: antitussive effect in LPS-citric acid cough model (inflammatory cough), guinea pigs", "type": "in vivo", "conditions": "for Cough Frequency / Cough Frequency Suppression Rate, Actual Value / Cough Latency: LPS + 0.2 M citric acid", "experimental": "160 guinea pigs, 250 g to 300 g each, half-male and half-female, certificate number 20220908Cdzz0412999409, were purchased from Xinjian Rabbit Farm, Dashiju Town, Xinchang County. The animals were reared at the general laboratory facility with 40% to 60% of humidity, and provided with a cycle of 12 h in the dark and 12 h in light. The animals could freely access to water and food. All operations and experimental procedures complied with the “Regulations on Animal Experiment Management.” • Production license: SCXK (Zhejiang) 2020-0005 • Application license: SCXK (Zhejiang) 2021-0019\nCurrently, there are barely reports on the models of inflammatory coughs in China and other countries. To closely mimic the occurrence of actual coughs in people suffering from acute respiratory infection, a novel inflammatory cough model was explored ahead of the projected experiments. This novel model was based on the citric acid-induced cough model, but the animals were subject to a LPS pretreatment before beginning with the cough provocation of citric acid.\nAfter 5 days of adaptive feeding, the animal was individually placed in a glass bell jar to allow adaptation for 1 min, and then administrated with the compressed aerosol of 0.4 M citric acid solution (instead of physiological saline for the blank control group) for 10 min. The frequency of cough was recorded during administration of the citric acid aerosol. The guinea pigs with a cough frequency of 10-30 were retained for the formal experiments later. The qualified guinea pigs were randomly divided into the corresponding groups (not fewer than 8 in each group) and were subjected to test the inhalation of the nebulized solvent, menthol, eucalyptus oil, or a combination of menthol and eucalyptus oil for 10 min. After an interval of 15 min post inhalation of the test drug, the animals were administered with the aerosol of 1 mg/mL LPS. 4 hours post the LPS nebulization, the animals were subjected to the second inhalation of the nebulized solvent, menthol, eucalyptus oil, or the combination of menthol and eucalyptus oil for 10 min. Fifteen minutes later, the aerosol of 0.2 M citric acid was administered for cough induction, and the process was recorded by video during the inhalation of citric acid. The duration from the inhalation of the nebulized citric acid to the emergence of first cough was designated as the latency. The control group used solvent for nebulization and cough evoking.\n• (1) 0.4 M citric acid: Citric acid was accurately weighed, added into an appropriate volume of pure water to make a final concentration of 0.4 mol/L, and completely dissolved by sonication. • (2) 0.2 M citric acid: Citric acid was accurately weighed, added into an appropriate volume of pure water to make a final concentration of 0.2 mol/L, and completely dissolved by sonication. • (3) Codeine: Codeine was accurately weighed, placed in a mortar and grounded repeatedly, added into an appropriate amount of physiological saline and completely dissolved by sonication. • (4) LPS preparation: LPS was accurately weighed, added into an appropriate amount of physiological saline to make a final concentration of 1 mg/mL, and completely dissolved by vortexing. • (5) Preparations of testing drugs: Initially, 4 g of menthol was dissolved in 10 mL of olive oil (menthol group), or 0.45 mL of eucalyptus oil was sufficiently mixed with 9.55 mL of olive oil (eucalyptus oil group). Afterwards, 5 g of soybean lecithin (previously cut into small pieces) was added to 10 mL of olive oil (control group) or each of the drug groups above, and dissolved by slowly stirring to form a uniform oil phase at 42° C. in a water bath. Further, double distilled water was slowly added to each group in oil phase on a magnetic stirrer and fully emulsified by sufficiently stirring to mix the oil phase with water. […]"}, "[7]": {"tested_on": "TRPM8", "conditions": "cooling effect; membrane potential depolarization and Ca2+ influx; cited from earlier work"}, "[8]": {"tested_on": "capsaicin-guinea pig model", "conditions": "cited from earlier work"}, "[9]": {"conditions": "2% menthol, 3.6% eucalyptus oil, combinations, or 30 mg/mL codeine phosphate, P<0.01"}}, "note": "Several values for one entry are separate records, joined by “and”; a condition that tells them apart may be missing. Equal values may be shown once. Entries after “also recorded” stand apart in the source; their conditions may differ. Where a name gives a salt, the structure may show the parent alone."}
{"molecule": "O=C(O)CC(O)(CC(=O)O)C(=O)O", "note": "[Sodium citrate]", "values": [{"measurement": "Cough induction by TRPV1 agonists (in words)", "setting": "[1]", "value": "evoke coughs in humans and guinea pigs"}, {"measurement": "Cough induction (in words)", "setting": "[2]; 0.4 M sodium citrate, P<0.01 vs control", "value": "significantly evoke coughing in guinea pigs"}]}
{"molecule": "CC12CCC(CC1)C(C)(C)O2", "note": "[Eucalyptol, 1,8-Cineol]", "values": [{"measurement": "Anti-inflammatory effect (in words)", "setting": "[3]", "value": "effective anti-inflammatory agent"}, {"measurement": "Antitussive effect in human clinical trials (in words)", "setting": "[4]", "value": "proven to have anti-inflammatory and antitussive effects in clinical trials; also recorded: confirmed in clinical trials"}, {"measurement": "Replacement of glucocorticoids in asthma (in words)", "setting": "[5]", "value": "partially replace the use of glucocorticoids"}]}
{"molecule": "COc1cc(CNC(=O)CCCC/C=C/C(C)C)ccc1O", "note": "[Capsaicin]", "values": [{"measurement": "Cough induction by TRPV1 agonists (in words)", "setting": "[1]", "value": "evoke coughs in humans and guinea pigs"}]}
{"molecule": "O=C(O)CC(O)(CC(=O)O)C(=O)O", "note": "[Citric acid]", "values": [{"measurement": "Cough induction (in words)", "setting": "[6]; 0.2 M citric acid after LPS, P<0.01 vs blank control", "value": "significantly induce coughs"}]}
{"molecule": "CC(C)[C@@H]1CC[C@@H](C)C[C@H]1O", "note": "[Menthol, L-1-methyl-4-isopropylcyclohexan-3-ol]", "values": [{"measurement": "Activation of TRPM8 (in words)", "setting": "[7]", "value": "Activation of TRPM8"}, {"measurement": "Antitussive effect in human clinical trials (in words)", "setting": "[4]", "value": "well verified in human clinical trials"}, {"measurement": "Antitussive effect on capsaicin-evoked coughs (in words)", "setting": "[8]", "value": "effectively suppress coughs; also recorded: significantly suppressed"}, {"measurement": "Effect on frequency of coughs / antitussive effect (in words)", "setting": "[2]; [9]", "value": "reduced the frequency of coughs; also recorded: reduced the cough frequency; also recorded: show antitussive effects"}, {"measurement": "Effect on latency of coughs (in words)", "setting": "[2]; [9]", "value": "significantly increased the cough latency"}, {"measurement": "Cough Frequency", "setting": "[2]; 2% menthol", "value": "11.58 ± 1.72", "unit": "times"}, {"measurement": "Cough Latency", "setting": "[2]; 2% menthol", "value": "155.50 ± 20.43", "unit": "s"}, {"measurement": "Inhibition Rate of Cough", "setting": "[2]; 2% menthol", "value": "37.39 ± 9.30", "unit": "%"}, {"measurement": "Inhibition Rate of Cough", "setting": "[2]; 2% menthol, listed as menthol", "value": "37.39% and 37.39 ± 9.30 %"}, {"measurement": "Cough Frequency", "setting": "[6]; 0.06% menthol", "value": "16.50 ± 1.78"}, {"measurement": "Cough Frequency Suppression Rate, Actual Value", "setting": "[6]; 0.06% menthol", "value": "12.65 ± 9.44", "unit": "%"}, {"measurement": "Cough Latency", "setting": "[6]; 0.06% menthol", "value": "104.88 ± 10.85", "unit": "s"}, {"measurement": "Cough Frequency", "setting": "[6]; 0.25% menthol", "value": "14.88 ± 1.90"}, {"measurement": "Cough Frequency Suppression Rate, Actual Value", "setting": "[6]; 0.25% menthol", "value": "21.25 ± 10.08", "unit": "%"}, {"measurement": "Cough Latency", "setting": "[6]; 0.25% menthol", "value": "88.75 ± 15.96", "unit": "s"}, {"measurement": "Statistical significance of cough suppression (in words)", "setting": "[6]; 1.0% and 4% menthol, 0.15% and 0.45% eucalyptus oil, P<0.01-0.05", "value": "statistical significance; also recorded: statistically attained the significance in cough suppression"}, {"measurement": "Cough Frequency", "setting": "[6]; 1.0% menthol", "value": "13.13 ± 0.55"}, {"measurement": "Cough Frequency Suppression Rate, Actual Value", "setting": "[6]; 1.0% menthol", "value": "28.53 ± 3.00", "unit": "%"}, {"measurement": "Cough Latency", "setting": "[6]; 1.0% menthol", "value": "116.38 ± 11.30", "unit": "s"}, {"measurement": "Cough Frequency Suppression Rate, Actual Value", "setting": "[6]; 1.0% menthol, listed as menthol", "value": "28.53 ± 3.00", "unit": "%"}, {"measurement": "Cough Frequency", "setting": "[6]; 4.0% menthol", "value": "11.38 ± 0.82"}, {"measurement": "Cough Frequency Suppression Rate, Actual Value", "setting": "[6]; 4.0% menthol", "value": "39.78 ± 4.35", "unit": "%"}, {"measurement": "Cough Latency", "setting": "[6]; 4.0% menthol", "value": "128.13 ± 13.84", "unit": "s"}, {"measurement": "Cough Frequency Suppression Rate, Actual Value", "setting": "[6]; 4.0% menthol, listed as menthol", "value": "39.78% and 39.78 ± 4.35 %"}, {"measurement": "Effect on frequency of coughs (in words)", "setting": "[6]; menthol 0.06-4%, eucalyptus oil 0.05-0.45%, combinations 0.06-1.0% + 0.05-0.15%, codeine 30 mg/mL", "value": "reduce the frequency of coughs in a dose-dependent manner"}, {"measurement": "Efficacy on inflammatory coughs compared with original model (in words)", "setting": "[6]; novel LPS-citric acid model vs original citric acid model", "value": "reduced; also recorded: better activities on non-inflammatory coughs; also recorded: declined"}]}
{"molecule": "COc1ccc2c3c1O[C@H]1[C@@H](O)C=C[C@H]4[C@@H](C2)N(C)CC[C@@]341", "note": "[Codeine phosphate]", "values": [{"measurement": "Cough Frequency", "setting": "[2]; 30 mg/mL codeine phosphate", "value": "7.90 ± 1.61", "unit": "times"}, {"measurement": "Cough Latency", "setting": "[2]; 30 mg/mL codeine phosphate", "value": "158.30 ± 17.46", "unit": "s"}, {"measurement": "Inhibition Rate of Cough", "setting": "[2]; 30 mg/mL codeine phosphate", "value": "57.30 ± 8.70", "unit": "%"}, {"measurement": "Cough Frequency", "setting": "[6]; 30 mg/mL codeine", "value": "8.44 ± 0.71"}, {"measurement": "Cough Frequency Suppression Rate, Actual Value", "setting": "[6]; 30 mg/mL codeine", "value": "55.29 ± 3.86", "unit": "%"}, {"measurement": "Cough Latency", "setting": "[6]; 30 mg/mL codeine", "value": "134.78 ± 9.72", "unit": "s"}]}
